# In publication PMC9081605, “A High-Throughput Toxicity Screen of 42 Per- and Polyfluoroalkyl Substances (PFAS) and Functional Assessment of Migration and Gene Expression in Human Placental Trophoblast Cells” (Frontiers in Toxicology, 2022):
# Entries after “also recorded” stand apart in the source; their conditions may differ.
# Test system: JEG-3 cells
# Assay: Gene expression, custom NanoString code set of 46 genes
# Format: cell-based, human
# Description: JEG-3 cells were seeded at a density of 80,000 cells per well in six well plates and allowed to adhere overnight (24 h). The following day, media was removed and replaced with exposure media, then returned to the incubator for 24 h. The test compounds included non-cytotoxic concentrations of PFOA (0, 1, and 100 µM) and GenX (0, 3, 300 µM). These test compounds were selected a priori due to their high public health relevance. Each 6 well plate contained the three concentrations for either PFOA or GenX, with each condition in technical duplicate. Plates containing these PFOA or GenX exposure conditions were replicated three times (N = 3). After 24 h, exposure media was aspirated and cells were washed in ice cold 1xPBS, which was then aspirated. Each well received 500 µl of TRIzol reagent (Thermo Fisher Scientific, MA, United States) and cells were harvested in the TRIzol using a cell scraper. Technical duplicate wells within a plate were combined to generate a single sample of ∼1,000 µl. RNA was isolated from the resulting cellular homogenate using RNeasy Mini Kits (Qiagen, Hilden, Germany). Isolated RNA quality was validated and concentration determined using a NanoDrop 2000 (Thermo Fisher Scientific, MA, United States). 100 ng of mRNA from each sample was then analyzed using a custom gene expression code set (NanoString, Seattle, WA, United States). The custom code set included 46 genes selected for their downstream involvement in placental development (e.g., WNT4), endocrine signaling (e.g., CYP19A1), fetal growth/nutrient sensing (e.g., IGF2), inflammation (e.g., IL6), oxidative stress (e.g., SOD1, GPX1), and xenobiotic transport/metabolism (e.g., ABCG2, MRP3).
# Gene expression data were quantified using the nCounter Digital Analyzer (NanoString, Seattle, WA, United States) and raw and adjusted counts were generated with nSolver (v4.0) software (NanoString, Seattle, WA, United States). Data were adjusted utilizing the manufacturer’s positive and negative experimental control probes, as well as housekeeping genes (ACTA2, ACTB, B2M, LDHA, RNA18S5, and ROLYR2L). All samples passed nSolver’s initial QA/QC controls and replicates were very well correlated with R ^2 values greater than 0.99. Adjusted data were then imported into Partek v7.0 (St. Louis, MO, United States), log2 transformed and quantile normalized for further QA/QC and statistical analyses. Genes with mRNA counts below the detection threshold of 20 were removed due to suboptimal probe hybridization (N = 2 genes for GenX; GH2 and IGFBP5). Fold change values were analyzed by ANOVA with post hoc false discovery rate adjustment (FDR) of p < 0.1. Normalized gene expression values were visualized using pheatmap with Euclidean clustering of genes and concentration groups ([Kolde and Kolde, 2015]).
compound,measurement,setting,value
O=C(O)C(F)(F)C(F)(F)C(F)(F)C(F)(F)C(F)(F)C(F)(F)C(F)(F)F [Perfluorooctanoic acid],"11BHSD2 gene expression, fold change over untreated control","1 µM, 24 h",-1.06
same,"17BHSD1 gene expression, fold change over untreated control","1 µM, 24 h",-1.02
same,"ABCG2 gene expression, fold change over untreated control","1 µM, 24 h",-1.07
same,"AHR gene expression, fold change over untreated control","1 µM, 24 h",-1.09
same,"AHRR gene expression, fold change over untreated control","1 µM, 24 h",significantly altered
same,"CAT gene expression, fold change over untreated control","1 µM, 24 h",1.02
same,"CGB5 gene expression, fold change over untreated control","1 µM, 24 h",1.00
same,"COX2 gene expression, fold change over untreated control","1 µM, 24 h",-1.11
same,"CTNNB1 gene expression, fold change over untreated control","1 µM, 24 h",1.00
same,"CYP1A1 gene expression, fold change over untreated control","1 µM, 24 h",1.05
same,"CYP3A5 gene expression, fold change over untreated control","1 µM, 24 h",1.28
same,"CYP3A7 gene expression, fold change over untreated control","1 µM, 24 h",1.15
same,"CYP19A1 gene expression, fold change over untreated control","1 µM, 24 h",-1.05
same,"EGFR gene expression, fold change over untreated control","1 µM, 24 h",1.07
same,"ENG gene expression, fold change over untreated control","1 µM, 24 h",1.02
same,"ESRRA gene expression, fold change over untreated control","1 µM, 24 h",1.00
same,"ESRRG gene expression, fold change over untreated control","1 µM, 24 h",-1.04
same,"GH2 gene expression, fold change over untreated control","1 µM, 24 h",1.02
same,"GHR gene expression, fold change over untreated control","1 µM, 24 h",1.00
same,"GPER1 gene expression, fold change over untreated control","1 µM, 24 h",1.02
same,"GPX1 gene expression, fold change over untreated control","1 µM, 24 h",1.00
same,"HIF1A gene expression, fold change over untreated control","1 µM, 24 h",1.00
same,"IGF2 gene expression, fold change over untreated control","1 µM, 24 h",1.00
same,"IGFBP5 gene expression, fold change over untreated control","1 µM, 24 h",-1.13
same,"IGFR1 gene expression, fold change over untreated control","1 µM, 24 h",1.03
same,"IGFR2 gene expression, fold change over untreated control","1 µM, 24 h",1.05
same,"IL6 gene expression, fold change over untreated control","1 µM, 24 h",-1.05
same,"MRP1 gene expression, fold change over untreated control","1 µM, 24 h",-1.03
same,"MRP2 gene expression, fold change over untreated control","1 µM, 24 h",1.09
same,"MRP3 gene expression, fold change over untreated control","1 µM, 24 h",-1.08
same,"NFKB1 gene expression, fold change over untreated control","1 µM, 24 h",1.00
same,"NFKB2 gene expression, fold change over untreated control","1 µM, 24 h",1.00
same,"NR3C1 gene expression, fold change over untreated control","1 µM, 24 h",1.09
same,"PGF gene expression, fold change over untreated control","1 µM, 24 h",1.00
same,"PMM1 gene expression, fold change over untreated control","1 µM, 24 h",-1.03
same,"ROLYR2L gene expression, fold change over untreated control","1 µM, 24 h",1.00
same,"SLC2A1 gene expression, fold change over untreated control","1 µM, 24 h",-1.02
same,"SOD1 gene expression, fold change over untreated control","1 µM, 24 h",1.00
same,"TGFB1 gene expression, fold change over untreated control","1 µM, 24 h",1.00
same,"VEGFA gene expression, fold change over untreated control","1 µM, 24 h",1.00
same,"VEGFB gene expression, fold change over untreated control","1 µM, 24 h",-1.00
same,"WNT4 gene expression, fold change over untreated control","1 µM, 24 h",1.25
same,"WNT6 gene expression, fold change over untreated control","1 µM, 24 h",-1.04
same,"WNT7B gene expression, fold change over untreated control","1 µM, 24 h",1.06
same,"mTOR gene expression, fold change over untreated control","1 µM, 24 h",1.00
same,"11BHSD2 gene expression, fold change over untreated control","100 µM, 24 h",-1.03
same,"AHR gene expression, fold change over untreated control","100 µM, 24 h",1.08
same,"AHRR gene expression, fold change over untreated control","100 µM, 24 h",1.00
same,"CAT gene expression, fold change over untreated control","100 µM, 24 h",-1.06
same,"CGB5 gene expression, fold change over untreated control","100 µM, 24 h",-1.15
same,"COX2 gene expression, fold change over untreated control","100 µM, 24 h",1.03
same,"CTNNB1 gene expression, fold change over untreated control","100 µM, 24 h",1.00
same,"CYP1A1 gene expression, fold change over untreated control","100 µM, 24 h",1.18
same,"CYP2E1 gene expression, fold change over untreated control","100 µM, 24 h",1.00
same,"CYP3A5 gene expression, fold change over untreated control","100 µM, 24 h",-1.18
same,"CYP3A7 gene expression, fold change over untreated control","100 µM, 24 h",-1.22
same,"CYP19A1 gene expression, fold change over untreated control","100 µM, 24 h",1.00
same,"EGFR gene expression, fold change over untreated control","100 µM, 24 h",-1.07
same,"ENG gene expression, fold change over untreated control","100 µM, 24 h",-1.19
same,"ESRRA gene expression, fold change over untreated control","100 µM, 24 h",1.00
same,"ESRRG gene expression, fold change over untreated control","100 µM, 24 h",-1.16
same,"GH2 gene expression, fold change over untreated control","100 µM, 24 h",1.12
same,"GHR gene expression, fold change over untreated control","100 µM, 24 h",1.15
same,"GPER1 gene expression, fold change over untreated control","100 µM, 24 h",-1.05
same,"GPX1 gene expression, fold change over untreated control","100 µM, 24 h",non-significant trend of decreased expression
same,"HIF1A gene expression, fold change over untreated control","100 µM, 24 h",1.00
same,"IGF2 gene expression, fold change over untreated control","100 µM, 24 h",-1.00
same,"IGFBP5 gene expression, fold change over untreated control","100 µM, 24 h",-1.02
same,"IGFR1 gene expression, fold change over untreated control","100 µM, 24 h",1.08
same,"IGFR2 gene expression, fold change over untreated control","100 µM, 24 h",significantly altered
same,"IL6 gene expression, fold change over untreated control","100 µM, 24 h",1.10
same,"MRP1 gene expression, fold change over untreated control","100 µM, 24 h",-1.06
same,"MRP2 gene expression, fold change over untreated control","100 µM, 24 h",-1.03
same,"MRP3 gene expression, fold change over untreated control","100 µM, 24 h",-1.12
same,"NFKB1 gene expression, fold change over untreated control","100 µM, 24 h",1.03
same,"NFKB2 gene expression, fold change over untreated control","100 µM, 24 h",1.00
same,"NR3C1 gene expression, fold change over untreated control","100 µM, 24 h",1.00
same,"PGF gene expression, fold change over untreated control","100 µM, 24 h",-1.00
same,"PMM1 gene expression, fold change over untreated control","100 µM, 24 h",1.07
same,"ROLYR2L gene expression, fold change over untreated control","100 µM, 24 h",1.00
same,"SLC2A1 gene expression, fold change over untreated control","100 µM, 24 h",-1.11
same,"SOD1 gene expression, fold change over untreated control","100 µM, 24 h",1.00
same,"TGFB1 gene expression, fold change over untreated control","100 µM, 24 h",-1.18
same,"VEGFA gene expression, fold change over untreated control","100 µM, 24 h",1.08
same,"VEGFB gene expression, fold change over untreated control","100 µM, 24 h",-1.04
same,"WNT4 gene expression, fold change over untreated control","100 µM, 24 h",significantly altered
same,"WNT6 gene expression, fold change over untreated control","100 µM, 24 h",-1.02
same,"WNT7B gene expression, fold change over untreated control","100 µM, 24 h",1.06
same,"mTOR gene expression, fold change over untreated control","100 µM, 24 h",1.00
same,"17BHSD1 gene expression, fold change over untreated control","100 µM, 24 h, listed as PFOA",significantly altered; also recorded: significant increase
same,"ABCG2 gene expression, fold change over untreated control","100 µM, 24 h, listed as PFOA",upregulation; also recorded: significantly altered
same,lowest concentration inducing significant dysregulated expression of placental genes,after 24 h of exposure,1 µM
